Read-outs that look alike come from different tables or passages of the source.
How the values were obtained:
[1] = target: T1, PBP3 from Escherichia coli (Escherichia coli, UniProt P0AD68); experiment: Fluorescence polarization competition binding assay with Bocillin-FL
T1 construct: made in house
Description: To determine the ability of boronic acid-based test PBP inhibitors to bind Penicillin Binding Proteins (PBPs), Bocillin-FL (fluorescently-labeled penicillin V; ThermoFisher Scientific) was used in a fluorescence polarization (FP) competition binding assay to assess boronic acid PBP inhibitor binding to PBP3 from Escherichia coli. PBP3 from Escherichia coli was cloned and purified as described previously (King, D. T, et al., ACS Infectious Diseases 2015, 1, 175-184). To establish assay conditions for competition binding, an enzyme titration/saturation binding experiment was performed. Bocillin-FL was prepared at […] in a buffer comprised of 50 mM Hepes (pH 8.0), 300 mM NaCl and 5% (v/v) glycerol. Saturation binding was performed by mixing […] of PBP3 ranging in concentrations from […] with 40 μl of the 0.2 μM Bocillin-FL solution, in individual wells of a black 384-well microplate. FP was measured immediately upon addition of PBP3 (Ex, Em), using a Cytation3 (BioTek) microplate reader and measured continuously for 60 minutes. […] The competition binding assay was validated using the beta-lactam ampicillin, with Bocillin-FL at a final concentration of 0.1 μM, PBP3 at a final concentration of 1.5 μM and concentrations of ampicillin from 0-1000 μM. PBP3 was incubated with ampicillin at different concentrations in a black 384-well microplate (Corning) for 30 minutes, then Bocillin-FL added and the FP immediately measured for 60 minutes. […] Binding assays for boronic acid PBP inhibitors were performed in an identical fashion. Representative results are shown in Table 3, where A represents a potency of >500 μM, B represents a potency between 30 μM and 500 μM inclusive, and C represents a potency of <30 μM. NT=Not Tested.

S. aureus ATCC 29213 = experiment: Broth microdilution MIC assay; type: cell-based; conditions: Staphylococcus aureus
Description: (§1) To determine the ability of test compounds to potentiate the inhibition of the growth of bacterial strains, classic cell based broth microdilution MIC assays were employed. MIC assays are performed according to CLSI methods except where otherwise noted (CLSI, 2011 and CLSI, 2009). The reference strain S. aureus ATCC 29213 and the hyper-permeable E. coli 901C were used to determine the ability of the PBP compounds to inhibit bacterial growth. Briefly, cryo-preserved bacterial cultures of clinical strains are streaked for isolation on appropriate agar medium, in this case Mueller Hinton II agar. Following incubation to allow formation of colonies these plates are sealed with parafilm and stored refrigerated for up to two weeks. For preparation of assay inocula and to ensure low variability, at least 5 colonies are picked from the agar plates with an inoculating loop and aseptically transferred to a culture tube containing 3 mL of Mueller-Hinton Broth (supplemented with divalent cations to required levels based on Manufacturers' certification). The broth culture is grown for 3-5 hours at 37° C. with shaking at 200 rpm. Meanwhile, 2-fold serial dilutions of test compounds are conducted in a 96 well plate with a final volume of 75 μL per well at 2-fold the final desired concentration. After the dilution plates are set up the growing cultures are then diluted in a cuvette containing MH II broth and the optical density is measured at 600 nm. Inocula are diluted such that 75 μL of this culture in Mueller-Hinton Broth results in a starting bacterial concentration of 5×10^5 CFU/mL when added to the dilution plates. The plates are incubated 16-20 hours at 37° C. The MIC is read visually as the lowest concentration well with no bacterial growth.

[2] = test system: hyper-permeable E. coli 901C; experiment: Broth microdilution MIC assay; type: cell-based; conditions: Escherichia coli, read-out: E. coli 901C MIC
Description: as §1

[3] = test system: E. coli DH5α/pLBII-CTX-M15; experiment: Broth microdilution MIC assay, engineered strain producing CTX-M15; type: cell-based, Escherichia coli; conditions: Escherichia coli, read-out: E. coli DH5α/pLBII-CTX-M15 Microbiological Activity (MIC)
Description: as §1
(§2) To determine if test compounds were affected by CTX-M15, the most abundant extended spectrum β-lactamase in clinical settings worldwide, the inhibition of the growth of an engineered strain of Escherichia coli harboring CTX-M15 was tested. This strain was constructed by cloning the gene encoding CTX-M15 into the NdeI and BamHI restriction endonuclease sites of plasmid pLBII, placing the gene(s) under the control of the Lac promoter. The constructed expression plasmid for CTX-M15 was used to transform competent E. coli DH5a cells to make the engineered strain, including an empty pLBII vector control strain. The classic cell based broth microdilution MIC assay was employed as described above with the addition of control antibiotics, known to be degraded by β-lactamases (Ceftazidime, piperacillin and piperacillin+tazobactam).

E. coli DH5α/pLBII = experiment: Broth microdilution MIC assay, empty vector control strain; type: cell-based; conditions: Escherichia coli, read-out: E. coli DH5α/pLBII Microbiological Activity (MIC)
Description: as §1, §2

[4] = ATCC29213, broth microdilution, 16-20 hours at 37° C., read-out: S. aureus 29213 MIC

T1 sequence (P0AD68 1-577): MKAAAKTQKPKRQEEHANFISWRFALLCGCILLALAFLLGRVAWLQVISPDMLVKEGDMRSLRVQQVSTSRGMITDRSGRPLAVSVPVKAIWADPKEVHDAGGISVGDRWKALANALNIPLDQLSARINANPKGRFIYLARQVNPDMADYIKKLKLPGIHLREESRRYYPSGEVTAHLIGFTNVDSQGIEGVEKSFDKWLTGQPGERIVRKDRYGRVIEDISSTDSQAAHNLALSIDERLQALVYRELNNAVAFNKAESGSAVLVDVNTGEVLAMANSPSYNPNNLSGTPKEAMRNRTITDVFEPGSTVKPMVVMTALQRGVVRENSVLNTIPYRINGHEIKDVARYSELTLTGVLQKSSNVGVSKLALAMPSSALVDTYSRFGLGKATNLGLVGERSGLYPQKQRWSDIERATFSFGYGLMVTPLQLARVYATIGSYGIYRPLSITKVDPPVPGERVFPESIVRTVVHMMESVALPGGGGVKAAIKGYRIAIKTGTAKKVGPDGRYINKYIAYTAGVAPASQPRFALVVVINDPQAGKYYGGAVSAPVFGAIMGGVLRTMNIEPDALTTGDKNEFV

| SMILES | EC50 [1] [µM] | MIC (S. aureus ATCC 29213; [4]) [µg/mL] | MIC [2] [µg/mL] | MIC [3] [µg/mL] | MIC (E. coli DH5α/pLBII) [µg/mL] | MIC (S. aureus ATCC 29213; ATCC29213, read-out: S. aureus 29213 MIC) [µg/mL] |
| --- | --- | --- | --- | --- | --- | --- |
| CCN1CCN(C(=O)N[C@@H](C(=O)N[C@H]2Cc3cccc(C(=O)O)c3OB2O)C(C)(C)O)C(=O)C1=O [Example 86, (R)-3-((R)-2-(4-ethyl-2,3-dioxopiperazine-1-carboxamido)-3-hydroxy-3-methylbutanamido)-2-hydroxy-3,4-dihydro-2H-benzo[e][1,2]oxaborinine-8-carboxylic acid] | 30 to 500 | > 128 | < 64 | 32 to 64 | – | – |
| Nc1nc(C(NC(=O)N2CCN(CCCF)C(=O)C2=O)C(=O)N[C@H]2Cc3cccc(C(=O)O)c3OB2O)cs1 (stereo partly drawn) [Example 54, (3R)-3-(2-(2-aminothiazol-4-yl)-2-(4-(3-fluoropropyl)-2,3-dioxopiperazine-1-carboxamido)acetamido)-2-hydroxy-3,4-dihydro-2H-benzo[e][1,2]oxaborinine-8-carboxylic acid] | – | 64 to 128 | < 64 | 8 to 16 | 8 to 16 | – |
| N[C@@H](C(=O)N[C@H]1Cc2cccc(C(=O)O)c2OB1O)c1ccccc1 [Example 2, (R)-3-((R)-2-amino-2-phenylacetamido)-2-hydroxy-3,4-dihydro-2H-benzo[e][1,2]oxaborinine-8-carboxylic acid] | – | > 128 | > 128 | > 512 | > 512 | – |
| CCN1CCN(C(=O)N[C@@H](C(=O)N[C@H]2Cc3cccc(C(=O)O)c3OB2O)[C@H](O)CO)C(=O)C1=O [Example 74, (R)-3-((2R,3S)-2-(4-ethyl-2,3-dioxopiperazine-1-carboxamido)-3,4-dihydroxybutanamido)-2-hydroxy-3,4-dihydro-2H-benzo[e][1,2]oxaborinine-8-carboxylic acid] | – | > 128 | < 64 | 32 to 64 | 32 to 64 | – |
| CCN1CCN(C(=O)NC(C(=O)N[C@H]2Cc3cccc(C(=O)O)c3OB2O)c2csc(NCCN)n2)C(=O)C1=O (stereo partly drawn) [Example 63, (3R)-3-(2-(2-((2-aminoethyl)amino)thiazol-4-yl)-2-(4-ethyl-2,3-dioxopiperazine-1-carboxamido)acetamido)-2-hydroxy-3,4-dihydro-2H-benzo[e][1,2]oxaborinine-8-carboxylic acid] | 30 to 500 | 64 to 128 | < 64 | – | – | – |
| Nc1nc(C(NC(=O)Nc2cccnc2)C(=O)N[C@H]2Cc3cccc(C(=O)O)c3OB2O)cs1 (stereo partly drawn) [Example 30, (3R)-3-(2-(2-aminothiazol-4-yl)-2-(3-(pyridin-3-yl)ureido)acetamido)-2-hydroxy-3,4-dihydro-2H-benzo[e][1,2]oxaborinine-8-carboxylic acid] | – | 64 to 128 | 64 to 128 | 128 to 256 | 128 to 256 | – |
| Nc1nc(C(NC(=O)c2cscn2)C(=O)N[C@H]2Cc3cccc(C(=O)O)c3OB2O)cs1 (stereo partly drawn) [Example 16, (3R)-3-(2-(2-aminothiazol-4-yl)-2-(thiazole-4-carboxamido)acetamido)-2-hydroxy-3,4-dihydro-2H-benzo[e][1,2]oxaborinine-8-carboxylic acid] | – | 64 to 128 | < 64 | 128 to 256 | 128 to 256 | – |
| N[C@@H](C(=O)N[C@H]1Cc2cccc(C(=O)O)c2OB1O)c1ccc(O)cc1 [Example 6, (R)-3-((R)-2-amino-2-(4-hydroxyphenyl)acetamido)-2-hydroxy-3,4-dihydro-2H-benzo[e][1,2]oxaborinine-8-carboxylic acid] | – | > 128 | > 128 | > 512 | > 512 | – |
| CN(C)S(=O)(=O)NC(C(=O)N[C@H]1Cc2cccc(C(=O)O)c2OB1O)c1csc(N)n1 (stereo partly drawn) [Example 23, (3R)-3-(2-(2-aminothiazol-4-yl)-2-((N,N-dimethylsulfamoyl)amino)acetamido)-2-hydroxy-3,4-dihydro-2H-benzo[e][1,2]oxaborinine-8-carboxylic acid] | – | > 128 | < 64 | 128 to 256 | 128 to 256 | – |
| Nc1nc(C(NS(=O)(=O)N2CCOCC2)C(=O)N[C@H]2Cc3cccc(C(=O)O)c3OB2O)cs1 (stereo partly drawn) [Example 24, (3R)-3-(2-(2-aminothiazol-4-yl)-2-(morpholine-4-sulfonamido)acetamido)-2-hydroxy-3,4-dihydro-2H-benzo[e][1,2]oxaborinine-8-carboxylic acid] | – | > 128 | < 64 | 128 to 256 | 128 to 256 | – |
| Nc1nc(C(NC(=O)Cc2ncccn2)C(=O)N[C@H]2Cc3cccc(C(=O)O)c3OB2O)cs1 (stereo partly drawn) [Example 21, (3R)-3-(2-(2-aminothiazol-4-yl)-2-(2-(pyrimidin-2-yl)acetamido)acetamido)-2-hydroxy-3,4-dihydro-2H-benzo[e][1,2]oxaborinine-8-carboxylic acid] | – | 64 to 128 | 64 to 128 | > 512 | > 512 | – |
| Cc1cc(C)n2c1C=C1C=CC(CCC(=O)NCCON=C(C(=O)N[C@H]3Cc4cccc(C(=O)O)c4OB3O)c3csc(N)n3)=[N+]1[B-]2(F)F [Example 13, (R)-3-(2-(2-aminothiazol-4-yl)-2-((2-(3-(5,5-difluoro-7,9-dimethyl-5H-4λ^4,5λ^4-dipyrrolo[1,2-c:2′,1′-f][1,3,2]diazaborinin-3-yl)propanamido)ethoxy)imino)acetamido)-2-hydroxy-3,4-dihydro-2H-benzo[e][1,2]oxaborinine-8-carboxylic acid] | – | – | > 128 | > 512 | > 512 | > 128 |
| Cn1ccc(C(=O)NC(C(=O)N[C@H]2Cc3cccc(C(=O)O)c3OB2O)c2csc(N)n2)cc1=O (stereo partly drawn) [Example 42, (3R)-3-(2-(2-aminothiazol-4-yl)-2-(1-methyl-2-oxo-1,2-dihydropyridine-4-carboxamido)acetamido)-2-hydroxy-3,4-dihydro-2H-benzo[e][1,2]oxaborinine-8-carboxylic acid] | – | 64 to 128 | < 64 | 32 to 64 | 32 to 64 | – |
| CCN1CCN(C(=O)N[C@@H](C)C(=O)N[C@H]2Cc3cccc(C(=O)O)c3OB2O)C(=O)C1=O [Example 31, (R)-3-((S)-2-(4-Ethyl-2,3-dioxopiperazine-1-carboxamido)propanamido)-2-hydroxy-3,4-dihydro-2H-benzo[e][1,2]oxaborinine-8-carboxylic acid] | – | > 128 | > 128 | > 512 | > 512 | – |
| CCC(O)[C@H](NC(=O)N1CCN(CC)C(=O)C1=O)C(=O)N[C@H]1Cc2cccc(C(=O)O)c2OB1O (single isomer, unassigned) [Example 83] | – | > 128 | 64 to 128 | 128 to 256 | 128 to 256 | – |
| Nc1nc(C(NS(=O)(=O)c2cccnc2)C(=O)N[C@H]2Cc3cccc(C(=O)O)c3OB2O)cs1 (stereo partly drawn) [Example 27, (3R)-3-(2-(2-aminothiazol-4-yl)-2-(pyridine-3-sulfonamido)acetamido)-2-hydroxy-3,4-dihydro-2H-benzo[e][1,2]oxaborinine-8-carboxylic acid] | – | > 128 | < 64 | 128 to 256 | 128 to 256 | – |

From patent US11332485B2, “Penicillin-binding protein inhibitors” (priority 2017, dated 2022)
